Earlier results as cited in publication PMC6644309 (ACS Omega, 2018).
Values after ≈ are worked out from the molar mass of the structure shown.

Tests used:
[1] = in vivo
[2] = not given; remark: listed apart in the source

CCCc1nc2c(C)cc(-c3nc4ccccc4n3C)cc2n1Cc1ccc(-c2ccccc2C(=O)O)cc1 [TLM, 2-[4-[[4-methyl-6-(1-methylbenzimidazol-2-yl)-2-propylbenzimidazol-1-yl]methyl]phenyl]benzoic acid]
solubility in water (in water): 0.09 µg/mL (≈ 0.175 µM) | solubility at pH 3–7 (in words) (pH 3–7, physiological pH): practically insoluble | bioavailability [1]: 42–58% | pKa, benzimidazole (basic) group, first [2]: 4.1 | pKa, benzimidazole (basic) group, second [2]: 6.0 | pKa, carboxylic (acidic) group [2]: 3.5
